These results are taken from article PMC5480290 (Journal of the American Chemical Society, 2016).

The target in test [1] is T1, LBT-PglBCl-Δ1-12 (Campylobacter lari, UniProt B9KDD4). The class given is binding. The conditions noted are these: Tb^3+ relative to LBT-PglB.
For a further test, the target named is LBT-PglBCj-Δ1-11 (Campylobacter jejuni subsp. jejuni serotype O:2, UniProt Q0P9C8). The class given is binding.
Test [2] concerns the target T1, LBT-PglBCl-Δ1-12. The class given is binding. The conditions noted are these: read-out: KD (glycan substrate); LRET titration, UndPPT-Fl from 0.014 to 5 μM, luminescence at 544 nm.
The next test relates to PglBCj. Type of test: biochemical, Campylobacter jejuni.

For orientation: Kd means a measure of binding affinity in units of concentration. As for `[Tb+3]` [Tb^3+, terbium], the “Tb^3+ saturation stoichiometry” value on LBT-PglBCl-Δ1-12 [1] and at LBT-PglBCj-Δ1-11 (Tb^3+ relative to LBT-PglB) was “saturated at one molar equivalent” throughout. Besides, on LBT-PglBCj-Δ1-11 (read-out: Tb^3+ KD, estimated, sensitized luminescence at 544 nm), the Kd is 2300 nM.

Turning to “Und-PP-diNAcBac-GalNAc-GalNAz conjugated to acetylene-545 fluorophore [UndPPT-Fl]”, the dissociation constant Kd on LBT-PglBCl-Δ1-12 [2] came to 330 ± 70 nM. Also, the “tolerated as glycosyl donor substrate” value with PglBCj is on record as “tolerates”.
